Measured values as given in patent US6984403B2, “Azithromycin dosage forms with reduced side effects” (Pfizer Inc., priority 2003, dated 2006).
≈ marks a conversion by molar mass, not a printed value. Like-named read-outs stand apart in the source and are kept apart here.

Assays:
[1] = Azithromycin solubility as a function of pH; type: physicochemical
Description: The effective amount of alkaline agent that would suppress the dissolution of azithromycin in the stomach and thereby result in an improvement in the toleration of the immediate release (IR) formulation was calculated as follows. The IR formulation, without an alkalizing agent, releases about 92% of the drug in 30 minutes at pH 6.0 as described in Example 5, i.e., 3.07% per minute at pH 6.0. To improve the toleration, the azithromycin dissolution rate must be reduced, preferably to a rate that will release only about 1.5 gA, or less, in the first 30 minutes or no greater than 2.5% per minute. It was assumed that the rate of drug dissolution from an IR formulation is directly proportional to the solubility of azithromycin, which is dependent on the pH as shown in Table 10.

[2] = cited from earlier work
[3] = 3,995 human patients, all dose levels combined, cited from earlier work
[4] = taken simultaneously with antacids; cited from earlier work
[5] = adult humans, single 1 gram dose, oral suspension
[6] = adult humans, single 2 gram, oral suspension
[7] = pediatric humans, oral suspension 10 mg/kg on Day 1 and 5 mg/kg on days 2–5
[8] = pediatric humans, single 30 mg/kg dose, oral suspension

Q: Which solubility ([1]; aqueous buffer, pH 6.0, obtained by interpolation from Table 10, read-out: azithromycin solubility at pH 6.0) does the source give for `CC[C@H]1OC(=O)[C@H](C)[C@@H](O[C@H]2C[C@@](C)(OC)[C@@H](O)[C@H](C)O2)[C@H](C)[C@@H](O[C@@H]2O[C@H](C)C[C@H](N(C)C)[C@H]2O)[C@](C)(O)C[C@@H](C)CN(C)[C@H](C)[C@@H](O)[C@]1(C)O` [Azithromycin, azithromycin] here?
A: 390 mg/mL (≈ 521 mM)

Q: What about the solubility ([1]; pH 2.88, aqueous buffer, read-out: Azithromycin Solubility) of the same compound?
A: 440 mg/mL (≈ 587 mM)

Q: What about the solubility ([1]; pH 4.09, aqueous buffer, read-out: Azithromycin Solubility) of the same compound?
A: 430 mg/mL (≈ 574 mM)

Q: What about the solubility ([1]; pH 6.15, aqueous buffer, read-out: Azithromycin Solubility) of the same compound?
A: 380 mg/mL (≈ 507 mM)

Q: What about the solubility ([1]; pH 6.42, aqueous buffer, read-out: Azithromycin Solubility) of the same compound?
A: 310 mg/mL (≈ 414 mM)

Q: What about the solubility ([1]; pH 6.61, aqueous buffer, read-out: Azithromycin Solubility) of the same compound?
A: 250 mg/mL (≈ 334 mM)

Q: What about the solubility ([1]; pH 6.65, aqueous buffer, read-out: Azithromycin Solubility) of the same compound?
A: 140 mg/mL (≈ 187 mM)

Q: What about the solubility ([1]; pH 6.75, aqueous buffer, read-out: Azithromycin Solubility) of the same compound?
A: 120 mg/mL (≈ 160 mM)

Q: And the solubility ([1]; pH 6.87, aqueous buffer, read-out: Azithromycin Solubility)?
A: 36 mg/mL (≈ 48.1 mM)

Q: And the solubility ([1]; pH 7.41, aqueous buffer, read-out: Azithromycin Solubility)?
A: 5 mg/mL (≈ 6.68 mM)

Q: And the solubility ([1]; pH 8.02, aqueous buffer, read-out: Azithromycin Solubility)?
A: 0.5 mg/mL (≈ 0.668 mM)

Q: What about the solubility ([1]; pH 8.85, aqueous buffer, read-out: Azithromycin Solubility) of the same compound?
A: 0.02 mg/mL (≈ 0.0267 mM)

Q: And the solubility ([1]; pH 10.34, aqueous buffer, read-out: Azithromycin Solubility)?
A: 0.005 mg/mL (≈ 0.00668 mM)

Q: What about the “reported incidence of abdominal pain” value [2, 5] of the same compound?
A: 5%

Q: And the “reported incidence of diarrhea/loose stools” value [2, 5]?
A: 7%

Q: And the “reported incidence of nausea” value [2, 5]?
A: 5%

Q: What about the “reported incidence of vomiting” value [2, 5] of the same compound?
A: 2%

Q: And the “reported incidence of abdominal pain” value [2, 6]?
A: 7%

Q: What about the “reported incidence of diarrhea/loose stools” value [2, 6] of the same compound?
A: 14%

Q: What about the “reported incidence of vomiting” value [2, 6] of the same compound?
A: 7%

Q: And the “reported incidence of abdominal pain” value [2, 7]?
A: 2%

Q: What about the “reported incidence of diarrhea/loose stools” value [2, 7] of the same compound?
A: 4%

Q: And the “reported incidence of vomiting” value [2, 7]?
A: 2%

Q: What about the “reported incidence of diarrhea/loose stools” value [2, 8] of the same compound?
A: 6.4%

Q: What about the “reported incidence of nausea” value [2, 8] of the same compound?
A: 1.7%

Q: And the “reported incidence of vomiting” value [2, 8]?
A: 4%

Q: And the “patients reporting GI side effects” value ([3]; oral)?
A: 9.6%

Q: What about the “frequency of abdominal pain” value [3] of the same compound?
A: 2.5%

Q: And the frequency of diarrhea [3]?
A: 3.6%

Q: What about the frequency of nausea [3] of the same compound?
A: 2.6%

Q: And the “reduction of azithromycin maximum serum concentration Cmax by antacids” value [4]?
A: 24%
